In patent US9387221B2, “SDF-1 binding nucleic acids and the use thereof in cancer treatment” (NOXXON Pharma AG, priority 2010, dated 2016):
[L-RNA-N] = L-ribonucleotide (mirror-image RNA, Spiegelmer), made from L-configured RNA phosphoramidites (N: the base); {PEG40k} = 40 kDa poly(ethylene glycol)

Experiments:
[1] = biological target: SDF-1 (Homo sapiens, UniProt P48061); assay: Inhibition of SDF-1-induced chemotaxis, Jurkat cells; format: cell-based; details: for IC50: Spiegelmer, Jurkat cells migrating towards 0.3 nM human SDF-1, 3 h, 37° C., read-out: IC50, cell culture in vitro chemotaxis assay
Description: The human T cell leukemia cell line Jurkat, the human leukemic monocyte lymphoma cell line U937, the human pre-B cell leukemia cell line BV-173 and human pre-B ALL cell line Nalm-6 express CXCR4. […] All cells used were obtained from the DSMZ (Braunschweig). All cell lines were cultivated at 37° C. and 5% CO2 in RPMI 1640 medium with Glutamax (Invitrogen, Karlsruhe, Germany) which contains 10% fetal bovine serum, 100 units/ml penicillin and 100 μg/ml streptomycin (Invitrogen, Karlsruhe, Germany). One day before the experiment, cells were seeded in a new T175 flask with a density of 0.3×10^6/ml (Jurkat, U937, BV-173) or 0.75×10^6/ml (Nalm-6), respectively.
For the experiment, cells were centrifuged (5 min at 300 g), resuspended, counted and washed once with 15 ml HBH (Hanks balanced salt solution containing 1 mg/ml bovine serum albumin and 20 mM HEPES; Invitrogen, Karlsruhe, Germany). Then the cells were resuspended at 1.33×10^6/ml (Jurkat, U937, BV-173) or 2.67×10^6/ml (Nalm-6), respectively. Cells were then allowed to migrate through the porous membranes of the filter plates for three hours towards a solution containing SDF-1 and various amounts of Spiegelmer. The stimulation solutions (SDF-1+various concentrations of Spiegelmer) were made up as 10× solutions in a 0.2 ml low profile 96-tube plate. 212 μl HBH were pipetted into the lower compartments of the transport plate and 23.5 μl of the stimulation solutions were added. All conditions were made up as triplicates. After 20 to 30 min the filter plate was inserted into the plate containing the stimulation solutions and 75 μl of a cell suspension with 1.33×10^6/ml or 2.67×10^6/ml, respectively, were added to the wells of the filter plate (1×10^5 or 2×10^5 cells/well). The cells were then allowed to migrate for 3 h at 37° C. For calibration, 0, 10 and 30 μl of the cell suspension was added to 235, 225 and 205 μl HBH, respectively, in wells of a separate 96-well plate. After 3 hours incubation, the insert plate was removed and 30 μl resazurin working solution (440 μM in PBS) were added to the lower wells and to the wells of the calibration plate. The plates were then incubated at 37° C. for 2.5 h. After incubation, 100 μl of each well were transferred to a black 96 well plate.
For evaluation, fluorescence values were corrected for background fluorescence (no cells in well). Then the difference between experimental conditions with and without SDF-1 was calculated. The value for the sample without Spiegelmer (SDF-1 only) was set 100% and the values for the samples with Spiegelmer were calculated as percent of this. For a dose-response curve the percent-values were plotted against Spiegelmer concentration and the IC50-value (concentration of Spiegelmer at which 50% of the activity without Spiegelmer is present) was determined graphically from the resulting curve.

[2] = tested on: SDF-1 induced sprouting, rings from rat aorta; assay: Aortic ring sprouting assay; format: cell-based; details: 10 nM SDF-1 + 1 μM Spiegelmer, 6 days
Description: After 6 to 7 days, sprouting (i.e. outgrowth of endothelial cells) was analysed by taking pictures and determining a sprouting index.
Aortae from male rats were obtained from Bagheri Life sciences (Berlin, Germany). The aortae were prepared freshly and transported on ice in MCDB 131-Medium (Invitrogen, Karlsruhe, Germany) containing 50 units/ml penicillin, 50 μg/ml streptomycin (both Invitrogen, Karlsruhe, Germany) and 2.5 μg/ml fungizone (Cambrex, USA).
For an experiment a single aorta was transferred to a cell culture dish together with the medium and residual connective tissue was removed. Then the aorta was cut with a scalpel into rings of about 1 to 2 mm length. The rings were washed intensively (at least five times) in Medium199 (Invitrogen, Karlsruhe, Germany) and then placed in wells of a 24 well plate, containing 450 μl of collagen solution per well. […]
Sprouting was documented by taking pictures with a digital camera. […] Pictures were analysed with the Scion Image image processing software. […] A plot histogram along this line was generated by the software, histograms were printed and peaks (representing sprouts crossing the line) were counted. […] 4 to 5 rings per condition were evaluated. […]

[3] = tested on: biotinylated human D-SDF-1; assay: Direct pull-down binding assay; details: aptamer (D-RNA), 37° C.; read-out: equilibrium binding constant KD, pull-down binding assay
Description: The affinity of aptamers to biotinlayted human D-SDF-1 was measured in a pull-down binding assay format at 37° C. Aptamers were 5′-phosphate labeled by T4 polynucleotide kinase (Invitrogen, Karlsruhe, Germany) using [γ-^32P]-labeled ATP (Hartmann Analytic, Braunschweig, Germany). The specific radioactivity of labeled aptamers was 200,000-800,000 cpm/pmol. Aptamers were incubated after de- and renaturation at 10, 20, 30 or 40 pM concentration at 37° C. in selection buffer (20 mM Tris-HCl pH 7.4; 137 mM NaCl; 5 mM KCl; 1 mM MgCl2; 1 mM CaCl2; 0.1% [w/vol] Tween-20) together with varying amounts of biotinlayted human D-SDF-1 for 4-12 hours in order to reach equilibrium at low concentrations. Selection buffer was supplemented with 10 μg/ml human serum albumin (Sigma-Aldrich, Steinheim, Germany), and 10 μg/ml yeast RNA (Ambion, Austin, USA) in order to prevent adsorption of binding partners with surfaces of used plasticware or the immobilization matrix. The concentration range of biotinlayted human D-SDF-1 was set from 8 pM to 100 nM; total reaction volume was 1 ml. Peptide and peptide-aptamer complexes were immobilized on 1.5 μl Streptavidin Ultralink Plus particles (Pierce Biotechnology, Rockford, USA) which had been preequilibrated with selection buffer and resuspended in a total volume of 6 μl. Particles were kept in suspension for 30 min at the respective temperature in a thermomixer. Immobilized radioactivity was quantitated in a scintillation counter after detaching the supernatant and appropriate washing. The percentage of binding was plotted against the concentration of biotinlayted human D-SDF-1 and dissociation constants were obtained by using software algorithms (GRAFIT; Erithacus Software; Surrey U.K.) assuming a 1:1 stoichiometry.

[4] = biological target: human SDF-1α (Homo sapiens, UniProt P48061); assay: Surface plasmon resonance measurement (Biacore 2000); format: binding; details: Spiegelmer (L-RNA), 37° C.
Description: The Biacore 2000 instrument (Biacore AB, Uppsala, Sweden) was used to analyze binding of Spiegelmers to human SDF-1α. When coupling of human SDF-1α was to be achieved via amine groups, human SDF-1α was dialyzed against water for 1-2 h (Millipore VSWP mixed cellulose esters; pore size, […]) to remove interfering amines. CM4 sensor chips (Biacore AB, Uppsala, Sweden) were activated before protein coupling by a 35-μl injection of a 1:1 dilution of 0.4 M NHS and 0.1 M EDC at a flow of 5 μl/min. Human MCP-1 or human SDF-1α was then injected in concentrations of 0.1-1.5 μg/ml at a flow of 2 μl/min until the instrument's response was in the range of 1000-2000 RU (relative units). Unreacted NHS esters were deactivated by injection of 35 μl ethanolamine hydrochloride solution (pH 8.5) at a flow of 5 μl/min. The sensor chip was primed twice with binding buffer and equilibrated at 10 μl/min for 1-2 hours until the baseline appeared stable. For all proteins, kinetic parameters and dissociation constants were evaluated by a series of Spiegelmer injections at concentrations of 1000, 500, 250, 125, 62.5, 31.25, and 0 nM in selection buffer (Tris-HCl, 20 mM; NaCl, 137 mM; KCl, 5 mM; CaCl2, 1 mM; MgCl2, 1 mM; Tween20, 0.1% [w/v]; pH 7.4). In all experiments, the analysis was performed at 37° C. using the Kinject command defining an association time of 180 and a dissociation time of 360 seconds at a flow of 10 μl/min. Data analysis and calculation of dissociation constants (KD) was done with the BIAevaluation 3.0 software (BIACORE AB, Uppsala, Sweden) using the Langmuir 1:1 stochiometric fitting algorithm.

[5] = tested on: biotinylated human D-SDF-1; assay: Competitive pull-down binding assay

human SDF-1α, sequence (P48061 22-89): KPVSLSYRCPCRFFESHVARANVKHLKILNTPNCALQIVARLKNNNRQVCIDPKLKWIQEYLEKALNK
SDF-1, sequence (P48061 22-89): as above

Row | Substance | inhibition of SDF-1 induced chemotaxis ([1]; Jurkat cells, Control Spiegelmer up to 1 μM) | blockage of SDF-1 induced sprouting (sprouting index) [2] | Kd [3] [nM] | Kd [4] [nM] | influence of the PEG-moiety on Spiegelmers potency to inhibit SDF-1 induced chemotaxis ([1]; Spiegelmer coupled to 40 kDa PEG at the 5′-end) | IC50 [1] [nM] | binding affinity in competitive pull-down binding assay vs. 191-D5-001 ([5]; reference 191-D5-001) | binding affinity of derivatives of 190-A3-001 ([5]; compared with 190-A3-001) | binding affinity in competitive pull-down binding assay vs. 192-A10-001 ([5]; aptamer level, reference 192-A10-001) | binding affinity in competitive pull-down binding assay vs. 191-D5-007 ([5]; reference 191-D5-007)
1 | 5′-40 kDa-PEG-UAAGGAAACUCGGUCUGAUGCGGUAGCGCUGUGCAGAGCU (all [L-RNA-N], 5' {PEG40k}, backbone not given here) [Control Spiegelmer, reference compound] | no inhibitory effect | No blockage | – | – | – | – | – | – | – | –
2 | CGGGAGGUUAGGGCUAGAAGUCGGUCCCG (chemistry not fully specified) [191-D5-007] | – | – | 2.2 | 0.8 | no influence | 0.1 | somewhat better | – | – | –
3 | GAGAUAGGGGUUAGGGCUUAAAGUCGGCUGAUUCUC (aptamer; Made as D-RNA aptamer and L-RNA Spiegelmer, tested form not given here, further chemistry not given here) [190-A3-004] | – | – | 4.6 | 4.7 | – | 0.1 | – | does not have an influence on the binding affinity | – | –
4 | GUGCUGCGGGGGUUAGGGCUAGAAGUCGGCCUGCAGCAC (aptamer; chemistry not fully specified) [197-B2] | – | – | – | 0.9 | – | – | – | – | weaker binding affinities | same binding affinity to SDF-1 as 191-D5-007
